Data on 18 compounds can be found in patent US20250282799A1, “SUBSTITUTED PYRIDO[4,3-d]PYRIMIDINES AS KRAS MODULATORS” (Alterome Therapeutics, Inc., priority 2023, published 2025).

Each structure is given as a SMILES string. pIC50: −log10 of the molar value.

The test system of this assay is KRAS G12V dependent lung adenocarcinoma cell line, NCI-H441. The assay can be described thus: Cellular pERK (Thr202/Tyr204) FRET/HTRF assay. In kind it is cell-based. The settings on record: Homo sapiens, NCI-H441, cellular pERK (Thr202/Tyr204) HTRF, NCI-H441 cells. The method, boiled down: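 NCI-H441 cells (KRAS G12V) were seeded and grown overnight at 37 °C, 5% CO2, then treated with compound in DMSO for 1 hr. Lysates were probed with a Eu3+-cryptate/d2 antibody sandwich against pERK1/2 Thr202/Tyr204 and read by HTRF at 665 nm; IC50 from curve fitting.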
On to `[2H]C([2H])(Oc1nc(N2CCOC[C@@H]3[C@@H](F)[C@@H]32)c2ccc(-c3cc(N)cc(C)c3C(F)(F)F)c(F)c2n1)[C@@]12CCCN1C[C@H](F)C2` [Example 182, 3-(8-fluoro-4-((1R,7R,8R)-8-fluoro-5-oxa-2-azabicyclo[5.1.0]octan-2-yl)-2-(((2R,7aS)-2-fluorotetrahydro-1H-pyrrolizin-7a(5H)-yl)methoxy-d2)quinazolin-7-yl)-5-methyl-4-(trifluoromethyl)aniline], for which the pIC50 is 5.00 to 6.30.

As to `[2H]C([2H])(Oc1nc(N2CCOC[C@H]3[C@H](F)[C@H]32)c2cc(Cl)c(-c3cc(N)cc(C4CC4)c3C(F)(F)F)c(F)c2n1)[C@@]12CCCN1C[C@H](F)C2` [Example 183, 3-(6-chloro-8-fluoro-4-((1S,7S,8S)-8-fluoro-5-oxa-2-azabicyclo[5.1.0]octan-2-yl)-2-(((2R,7aS)-2-fluorotetrahydro-1H-pyrrolizin-7a(5H)-yl)methoxy-d2)quinazolin-7-yl)-5-cyclopropyl-4-(trifluoromethyl)aniline], the pIC50 was 5.00 to 6.30.

Turning to `[2H]C([2H])(Oc1nc(N2CCOC[C@@H]3[C@@H](F)[C@@H]32)c2cc(Cl)c(-c3cc(N)cc(C4CC4)c3C(F)(F)F)c(F)c2n1)[C@@]12CCCN1C[C@H](F)C2` [Example 184, 3-(6-chloro-8-fluoro-4-((1R,7R,8R)-8-fluoro-5-oxa-2-azabicyclo[5.1.0]octan-2-yl)-2-(((2R,7aS)-2-fluorotetrahydro-1H-pyrrolizin-7a(5H)-yl)methoxy-d2)quinazolin-7-yl)-5-cyclopropyl-4-(trifluoromethyl)aniline], the pIC50 was 5.00 to 6.30.

`[2H]C([2H])(Oc1nc(N2CCOC[C@@H]3[C@H]2[C@@]3([2H])F)c2cnc(-c3cc(N)cc4ccc(F)c(C#C)c34)c(F)c2n1)[C@@]12CCCN1C[C@H](F)C2` [Example 185, 5-ethynyl-6-fluoro-4-(8-fluoro-4-((1S,7S,8S)-8-fluoro-5-oxa-2-azabicyclo[5.1.0]octan-2-yl-8-d)-2-(((2R,7aS)-2-fluorotetrahydro-1H-pyrrolizin-7a(5H)-yl)methoxy-d2)pyrido[4,3-d]pyrimidin-7-yl)naphthalen-2-amine] showed a negative-log IC50 (pIC50) greater than 7.30.

For `[2H]C([2H])(Oc1nc(N2CCOC[C@H]3[C@H](F)[C@H]32)c2cnc(-c3nc(N)cc(C)c3C(F)(F)F)c(F)c2n1)[C@@]12CCCN1C[C@H](F)C2` [Example 186, 6-(8-fluoro-4-((1S,7S,8S)-8-fluoro-5-oxa-2-azabicyclo[5.1.0]octan-2-yl)-2-(((2R,7aS)-2-fluorotetrahydro-1H-pyrrolizin-7a(5H)-yl)methoxy-d2)pyrido[4,3-d]pyrimidin-7-yl)-4-methyl-5-(trifluoromethyl)pyridin-2-amine], the pIC50 was 6.30 to 7.30.

With `C#Cc1c(F)ccc2cc(N)cc(-c3ncc4c(N5CCOC[C@H]6[C@H](F)[C@H]65)nc(OC[C@@]56CCCN5CC5(CC5)C6)nc4c3F)c12` [Example 187, 4-(2-(((S)-dihydro-1′H,3′H-spiro[cyclopropane-1,2′-pyrrolizin]-7a′(5′H)-yl)methoxy)-8-fluoro-4-((1S,7S,8S)-8-fluoro-5-oxa-2-azabicyclo[5.1.0]octan-2-yl)pyrido[4,3-d]pyrimidin-7-yl)-5-ethynyl-6-fluoronaphthalen-2-amine], the pIC50 was greater than 7.30.

In turn, `[2H]C([2H])(F)Oc1c(F)ccc2cc(N)cc(-c3ncc4c(N5CCOC[C@H]6[C@H](F)[C@H]65)nc(OC[C@@]56CCCN5C/C(=C\F)C6)nc4c3F)c12` [Example 188, 6-Fluoro-4-(8-fluoro-4-((1S,7S,8S)-8-fluoro-5-oxa-2-azabicyclo[5.1.0]octan-2-yl)-2-(((S,Z)-2-(fluoromethylene)tetrahydro-1H-pyrrolizin-7a(5H)-yl)methoxy)pyrido[4,3-d]pyrimidin-7-yl)-5-(fluoromethoxy-d2)naphthalen-2-amine] showed a negative-log IC50 (pIC50) greater than 7.30.

`[2H]C([2H])(F)Oc1c(F)ccc2cc(N)cc(-c3ncc4c(N5CCOC[C@H]6[C@H](F)[C@H]65)nc(OC[C@@]56CCCN5CC(=C)C6)nc4c3F)c12` [Example 189, 6-fluoro-4-(8-fluoro-4-((1S,7S,8S)-8-fluoro-5-oxa-2-azabicyclo[5.1.0]octan-2-yl)-2-(((S)-2-methylenetetrahydro-1H-pyrrolizin-7a(5H)-yl)methoxy)pyrido[4,3-d]pyrimidin-7-yl)-5-(fluoromethoxy-d2)naphthalen-2-amine] showed a negative-log IC50 (pIC50) greater than 7.30.

In turn, `[2H]C([2H])(Oc1nc(N2CCOC[C@H]3[C@H](F)[C@H]32)c2cc(Cl)c(-c3cc(N)c(F)c(C)c3C(F)(F)F)c(F)c2n1)[C@@]12CCCN1C[C@H](F)C2` [Example 190, 5-(6-chloro-8-fluoro-4-((1S,7S,8S)-8-fluoro-5-oxa-2-azabicyclo[5.1.0]octan-2-yl)-2-(((2R,7aS)-2-fluorotetrahydro-1H-pyrrolizin-7a(5H)-yl)methoxy-d2)quinazolin-7-yl)-2-fluoro-3-methyl-4-(trifluoromethyl)aniline] gave a pIC50 of 6.30 to 7.30.

In turn, `[2H]C([2H])(Oc1nc(N2CCOC[C@@H]3[C@@H](F)[C@@H]32)c2cc(Cl)c(-c3cc(N)c(F)c(C)c3C(F)(F)F)c(F)c2n1)[C@@]12CCCN1C[C@H](F)C2` [Example 191, 5-(6-chloro-8-fluoro-4-((1R,7R,8R)-8-fluoro-5-oxa-2-azabicyclo[5.1.0]octan-2-yl)-2-(((2R,7aS)-2-fluorotetrahydro-1H-pyrrolizin-7a(5H)-yl)methoxy-d2)quinazolin-7-yl)-2-fluoro-3-methyl-4-(trifluoromethyl)aniline] showed a pIC50 of 5.00 to 6.30.

In turn, `[2H]C([2H])([2H])Oc1c(F)cc(F)c2cc(N)cc(-c3ncc4c(N5CCOC[C@H]6[C@H](F)[C@H]65)nc(OC[C@@]56CCCN5CC(=C)C6)nc4c3F)c12` [Example 192, 6,8-difluoro-4-(8-fluoro-4-((1S,7S,8S)-8-fluoro-5-oxa-2-azabicyclo[5.1.0]octan-2-yl)-2-(((S)-2-methylenetetrahydro-1H-pyrrolizin-7a(5H)-yl)methoxy)pyrido[4,3-d]pyrimidin-7-yl)-5-(methoxy-d3)naphthalen-2-amine] gave a pIC50 greater than 7.30.

`[2H]C1([2H])CC[C@@]2(C([2H])([2H])Oc3nc(N4CCOC[C@H]5[C@H](F)[C@H]54)c4cnc(-c5cc(N)cc6ccc(F)c(C#C)c56)c(F)c4n3)C[C@@]([2H])(F)CN12` [Example 193, 5-ethynyl-6-fluoro-4-(8-fluoro-4-((1S,7S,8S)-8-fluoro-5-oxa-2-azabicyclo[5.1.0]octan-2-yl)-2-(((2R,7aS)-2-fluorotetrahydro-1H-pyrrolizin-7a(5H)-yl-2,5,5-d3)methoxy-d2)pyrido[4,3-d]pyrimidin-7-yl)naphthalen-2-amine] gave a pIC50 greater than 7.30.

For `[2H]C([2H])(Oc1nc(N2CCC(=O)C[C@@H]3[C@H](F)[C@@H]32)c2cnc(-c3cc(N)cc4cc(F)c(F)c(C#C)c34)c(F)c2n1)[C@@]12CCCN1C[C@H](F)C2` [Example 194, (1R,7S,8S)-2-(7-(3-amino-8-ethynyl-6,7-difluoronaphthalen-1-yl)-8-fluoro-2-(((2R,7aS)-2-fluorotetrahydro-1H-pyrrolizin-7a(5H)-yl)methoxy-d2)pyrido[4,3-d]pyrimidin-4-yl)-8-fluoro-2-azabicyclo[5.1.0]octan-5-one], the pIC50 is 6.30 to 7.30.

Take `[2H]C([2H])(Oc1nc(N2CCC(=O)C[C@H]3[C@H](F)[C@H]32)c2cnc(-c3cc(N)cc4cc(F)c(F)c(C#C)c34)c(F)c2n1)[C@@]12CCCN1C[C@H](F)C2` [Example 195, (1S,7R,8S)-2-(7-(3-amino-8-ethynyl-6,7-difluoronaphthalen-1-yl)-8-fluoro-2-(((2R,7aS)-2-fluorotetrahydro-1H-pyrrolizin-7a(5H)-yl)methoxy-d2)pyrido[4,3-d]pyrimidin-4-yl)-8-fluoro-2-azabicyclo[5.1.0]octan-5-one]: the pIC50 is greater than 7.30.

`[2H]C([2H])(Oc1nc(N2CCC(=O)C[C@@H]3[C@@H](F)[C@@H]32)c2cnc(-c3cc(N)cc4cc(F)c(F)c(C#C)c34)c(F)c2n1)[C@@]12CCCN1C[C@H](F)C2` [Example 196, (1R,7S,8R)-2-(7-(3-amino-8-ethynyl-6,7-difluoronaphthalen-1-yl)-8-fluoro-2-(((2R,7aS)-2-fluorotetrahydro-1H-pyrrolizin-7a(5H)-yl)methoxy-d2)pyrido[4,3-d]pyrimidin-4-yl)-8-fluoro-2-azabicyclo[5.1.0]octan-5-one] gave a negative-log IC50 (pIC50) greater than 7.30.

Turning to `[2H]C([2H])(Oc1nc(N2CCC(=O)C[C@H]3[C@@H](F)[C@H]32)c2cnc(-c3cc(N)cc4cc(F)c(F)c(C#C)c34)c(F)c2n1)[C@@]12CCCN1C[C@H](F)C2` [Example 197, (1S,7R,8R)-2-(7-(3-amino-8-ethynyl-6,7-difluoronaphthalen-1-yl)-8-fluoro-2-(((2R,7aS)-2-fluorotetrahydro-1H-pyrrolizin-7a(5H)-yl)methoxy-d2)pyrido[4,3-d]pyrimidin-4-yl)-8-fluoro-2-azabicyclo[5.1.0]octan-5-one], the pIC50 is 6.30 to 7.30.

Compound `C#Cc1c(F)ccc2cc(O)cc(-c3ncc4c(N5CCOC[C@H]6[C@H](F)[C@H]65)nc(OC[C@]56C[C@@H](F)CN5C[C@@H](CN)C6)nc4c3F)c12` [Example 198, 4-(2-(((2R,6R,7aS)-2-(aminomethyl)-6-fluorotetrahydro-1H-pyrrolizin-7a(5H)-yl)methoxy)-8-fluoro-4-((1S,7S,8S)-8-fluoro-5-oxa-2-azabicyclo[5.1.0]octan-2-yl)pyrido[4,3-d]pyrimidin-7-yl)-5-ethynyl-6-fluoronaphthalen-2-ol] showed a pIC50 of 6.30 to 7.30.

In the case of `[2H]C([2H])(Oc1nc(N2CCOC[C@H]3[C@H](F)[C@H]32)c2cnc(-c3cc(N)cc4ccc(F)c(C=C)c34)c(F)c2n1)[C@@]12CCCN1C[C@H](F)C2` [Example 199, 6-Fluoro-4-(8-fluoro-4-((1S,7S,8S)-8-fluoro-5-oxa-2-azabicyclo[5.1.0]octan-2-yl)-2-(((2R,7aS)-2-fluorotetrahydro-1H-pyrrolizin-7a(5H)-yl)methoxy-d2)pyrido[4,3-d]pyrimidin-7-yl)-5-vinylnaphthalen-2-amine], the negative-log IC50 (pIC50) is greater than 7.30.
